According to patent US8541670B2, “Compositions and methods for inhibiting tumor cell growth” (priority 2007, dated 2013):
Where no end group is shown, it is not given here.

What was measured:
N2a cells [1] = assay: Trypan blue staining, live and dead cell count; type: cell-based
Source text: Therefore, in addition to capturing live images, cells were stained with trypan blue at different time intervals following treatment with ZaTa and counted by a light microscope using a hemocytometer.

AKT [2] = biological target: T1, AKT (Homo sapiens, UniProt P31749); assay: Screen of PKAc peptide library for effect on catalytic activity of AKT; type: biochemical; conditions: single peptide
T1 construct: purchased Upstate Biotechnology
Source text: Unlike PKAc and protein kinase C (PKC) for which potent inhibitor peptides are readily available and widely used, inhibitors of AKT are generally lacking (Brazil, et al. (2004) supra). […] Moreover, optimal substrate motifs for AKT have been modified to design AKT inhibitors (Obata, et al. (2000) J. Biol. Chem. 275:36108-36115). Because the full-length PKAc protein inhibited the catalytic activity of AKT, a peptide library based on the human (GENBANK Accession No. NP_002721; SEQ ID NO:1) and bovine (GENBANK Accession No. CAA47627; SEQ ID NO:2) PKAc protein sequences was designed and synthesized. This library contained 96 overlapping peptides (Table 1), covering the full-length protein sequence of human and bovine PKAc from the N- to C-terminus. The library was extensively screened to identify fragments of PKAc that mediated the inhibitory effect of PKAc toward AKT.
These peptides included peptide 49 (SEQ ID NO:56), 53 (SEQ ID NO:60), 62 (SEQ ID NO:69), 63 (SEQ ID NO:70) and 64 (SEQ ID NO:71). Combinations of consecutive overlapping peptide fragments were also assayed for an effect on the catalytic activity of AKT. A significant inhibitory effect was also observed when peptides 25 through 36 were combined (i.e., SEQ ID NOs:32-43), peptides 37 through 48 were combined (i.e., SEQ ID NOs:44-55), peptides 49 through 60 were combined (i.e., SEQ ID NOs:56-67), and peptides 61 through 72 were combined (i.e., SEQ ID NOs:68-79).

AKT1 = biological target: T2, AKT1 (Homo sapiens, UniProt P31749); assay: AKT1 radioactive in vitro kinase assay (32P incorporation into Ser-21 GSK-3 substrate peptide); type: biochemical; conditions: compared with ZaTa
T2 construct: purchased Upstate Biotechnology
Description: AKT1 catalytic activity was determined by measuring the incorporation of −^32P into Ser-21 glycogen synthase kinase 3[…] (GSK-3[…]) substrate peptide. Histogram bars represent the number of −^32P counts per minute (CPM). Reactions were carried out in the presence of different concentrations of the ZaTa peptide (SEQ ID NO:60), as well as a control peptide (SEQ ID NO:59) which shares 11 out of 17 amino acids in common with the N-terminus of the ZaTa peptide.
Of particular interest with regard to inhibitory activity toward AKT was peptide […](SEQ ID NO:60) which flanked the Thr-197 phosphorylation site of PKAc. […] Furthermore, the inhibitory effect of ZaTa peptide was compared with an adjacent peptide ([…] SEQ ID NO:59), a peptide that overlaps with the 11 N-terminal amino acid residues of the ZaTa peptide and carries the Thr-197 phosphorylation site. In this assay, the level of incorporation of −^32 P into Ser-21 GSK-3[…] substrate peptide was used as the measure of AKT1 in vitro catalytic activity.
For non-radioactive kinase assays, typically 25 ng of active AKT1 or PKAc (Upstate Biotechnology) was used in a kinase assay reaction buffer (20 mM MOPS, pH 7.2, 25 mM […]-glycerophosphate, 5 mM EGTA, 1 mM Na3VO4, 1 mM dithiothreitol, 75 mM MgCl2, and 0.5 mM ATP) in the presence of either 1 μL of Ser-9 GSK-3 GST fusion protein (Cell Signaling), or recombinant DARPP-32 (10 μg). For the radioactive kinase assays, typically 25 ng of kinase was added to the kinase assays reaction buffer (20 mM MOPS, pH 7.2, 25 mM […]-glycerophosphate, 5 mM EGTA, 1 mM Na3VO4, 1 mM dithiothreitol) containing 30 μM of dephosphorylated Ser-21 GSK-3 substrate peptide (Upstate Biotechnology) in the presence of different concentrations of inhibitor. Reactions were initiated by adding [−^32P] ATP (10 μCi/reaction) which was diluted in the reaction buffer, plus 500 μM cold ATP and 75 mM MgCl2. Kinase reactions were incubated 30° C. for 10-20 minutes. A 5 μL aliquot of the reaction was transferred to phosphocellulose paper, washed for 30 minutes with dH2O, and CPM of samples read in scintillation counter.

olfactory bulb cells = assay: In vivo TUNEL in olfactory bulb after repeated intranasal delivery; parameters: species or system C57BL/6 mice; conditions: repeated intranasal treatment for three days
Source text: To confirm the apoptotic inducing effect of ZaTa in vivo, ZaTa was delivered to the mouse brain via the nasal cavity, a minimally invasive procedure compared to the stereotactic surgery. Intranasal delivery of compounds into the brain is an efficient and effective way for local delivery of compounds, without the need for passing the blood brain barriers, the major obstacle for studying the effect of different inhibitors/activators in CNS (Vyas, et al. (2005) Curr. Drug Deliv. 2:165-175; Hrafnkelsdottir, et al. (2005) Biol. Pharm. Bull. 28:1038-1042). […] This was visualized by double labeling of the brain sections with fluorescent TUNEL and a nuclear marker.
Depending on the intended use, a pharmaceutical composition of the invention can be administered by any suitable means, including parenteral injection (such as intraperitoneal, subcutaneous, intratumoral or intramuscular injection), orally or by topical application (e.g., transdermal or via a mucosal surface). By pharmaceutically acceptable formulation is meant, a composition or formulation that allows for the effective distribution of the nucleic acid molecules of the instant invention in the physical location most suitable for their desired activity. […]

N2a cells [3] = assay: MTT cell proliferation assay; type: cell-based; conditions: 10 μM, 48-hour treatment (FIG. 3, series 1)
Description: In histogram series 2, treatments were removed after 24 hours and cells were incubated for another 24 hours without treatment. […] Mitochondrial activity (reflecting cellular growth and viability) in the presence of ZaTa and ZaTa variants (ZaTa T10D, ZaTa T8D, ZaTa T14R, and ZaTa Y17T) was evaluated by measuring the optical density (“OD”) at 490 nm on a plate reader. ZaTa T10D refers to a ZaTa polypeptide variant in which the Threonine (T) at position 10 of SEQ ID NO: 60 is substituted by an Aspartic Acid (D). ZaTa T8D refers to a ZaTa polypeptide variant in which the Threonine (T) at position 8 of SEQ ID NO: 60 is substituted by an Aspartic Acid (D). ZaTa T14R refers to a ZaTa polypeptide variant in which the Threonine (T) at position 14 of SEQ ID NO: 60 is substituted by an Arginine (R). ZaTa Y17T refers to a ZaTa polypeptide variant in which the Tyrosine (Y) at position 17 of SEQ ID NO: 60 is substituted by an Threonine (T).
AKT affects a network that positively regulates G1/S cell cycle progression through several mechanisms that involve the expression and subcellular localization of the CDK inhibitor p27^Kip1 (Blain and Massague (2002) Nat. Med. 8:1076-1078; Liang, et al. (2002) supra; Shin, et al. (2002) supra; Viglietto, et al. (2002) supra). Based on these studies, the effect of ZaTa peptide on cell proliferation was assessed. […] Capturing live images of cultured N2a cells in the presence of different concentrations of the ZaTa peptide confirmed an obvious reduction in the number of dividing cells.
Based on the importance of the C-terminal arm of ZaTa for its inhibitory action on AKT, it was determined whether the free hydroxyl groups on residues Thr-8, Thr-10 (equivalent to Thr-197 in full-length PKAc), Thr-14 and Tyr-17 were important for the biological activity of this peptide. Mutants of ZaTa peptide were synthesized by replacing Thr-8 or Thr-10 residues with Asp (ZaTa^T8D and ZaTa^T10D, respectively) as an amino acid with a negatively charged side chain. Mutants of ZaTa with the hydrophilic positively charged amino acid Arg at either position Thr-14 or Tyr-17 (ZaTa^T14R and ZaTa^Y17R, respectively) were also synthesized. […] The inhibitory effect of ZaTa peptide on cell proliferation was reversible, to a large extent, after the removal of ZaTa treatment (FIG. 3, histogram series 2).
Cells (5×10^3) were incubated in 96-well plates in the presence of different concentrations of the ZaTa peptide, control peptide or DMSO as vehicle. Media was removed at different time intervals and replaced with media containing MTT (5 mg/mL), and incubated for one hour at 37° C. […] The activity of the mitochondria, reflecting cellular growth and viability, was evaluated by measuring the optical density at 490 nm on a plate reader.

AKT [4] = assay: AKT activity in cultured neurons treated with PKA inhibitor or activator; type: cell-based
Description: To evaluate the significance of the AKT-PKAc interaction, kinase inhibitors were employed. […] Thus, cultured neurons were treated with the selective PKA inhibitor, H-89, and the potent PKA activator, forskolin, and AKT activity was analyzed.

[5] = counted at time points from 12 to 72 hours

T1 sequence (P31749 whole entry): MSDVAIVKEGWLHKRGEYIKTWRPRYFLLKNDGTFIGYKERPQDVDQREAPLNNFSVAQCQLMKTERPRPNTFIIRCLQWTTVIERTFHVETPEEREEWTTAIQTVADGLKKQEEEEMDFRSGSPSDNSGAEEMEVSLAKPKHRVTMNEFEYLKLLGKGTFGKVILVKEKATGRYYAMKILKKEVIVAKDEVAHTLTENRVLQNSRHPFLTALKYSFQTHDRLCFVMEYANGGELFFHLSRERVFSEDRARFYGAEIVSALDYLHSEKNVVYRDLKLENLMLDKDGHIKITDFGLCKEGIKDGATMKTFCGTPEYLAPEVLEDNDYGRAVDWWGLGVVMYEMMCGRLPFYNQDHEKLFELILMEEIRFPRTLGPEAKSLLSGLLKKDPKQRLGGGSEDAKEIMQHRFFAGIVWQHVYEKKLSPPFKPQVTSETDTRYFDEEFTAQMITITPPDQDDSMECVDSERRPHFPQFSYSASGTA
T2 sequence (P31749 whole entry): as above

## AKRVKGRTWTLCGRPEY [ZaTa^T14R]
N2a cells [1]; only after 72 hours
  increase in the number of dead cells: significant increase in the number of dead cells

## Y-E-M-A-A-G-Y-P-P-F-F-A (YEMAAGYPPFFA; Peptide_SEQ ID NO:71) [Peptide 64]
AKT [2]
  inhibitory effect toward AKT, individual library peptides: significant inhibitory effects

## GFAKRVKGRTWTL [control peptide, peptide overlapping the 11 N-terminal residues of ZaTa, reference compound]
AKT1
  inhibition of AKT1 catalytic activity: not able to inhibit AKT1
Olfactory bulb cells
  number of apoptotic cells in olfactory bulb: no change in the number of apoptotic cells

## ZaTa^Y17R: ZaTa mutant with Arg at position Tyr-17 (AKRVKGRTWTLCGTPER; Peptide_SEQ ID NO:60)
N2a cells [1]; only after 72 hours
  increase in the number of dead cells: significant increase in the number of dead cells
N2a cells [3]
  effect of mutation on inhibition of cell proliferation relative to ZaTa: considerably augmented ZaTa activity

## AKRVKGRDWTLCGTPEY [ZaTa^T8D]
N2a cells [1]; [5]
  increase in the number of dead cells: not seen

## O=S(=O)(NCCNC/C=C/c1ccc(Br)cc1)c1cccc2cnccc12 [Peptide H-89]
AKT [4]
  activity of AKT, phosphorylation level at Thr-308 and Ser-473: dose-dependent increase

## W-A-L-G-V-L-I-Y-E-M-A-A-G-Y (WALGVLIYEMAAGY; Peptide_SEQ ID NO:69) [Peptide 62]
AKT [2]
  inhibitory effect toward AKT, individual library peptides: significant inhibitory effects

## G-V-L-I-Y-E-M-A-A-G-Y-P-P-F-F (GVLIYEMAAGYPPFF; Peptide_SEQ ID NO:70) [Peptide 63]
AKT [2]
  inhibitory effect toward AKT, individual library peptides: significant inhibitory effects

## D-Q-Q-G-Y-I-Q-V-T-D-F-G-F-A-K (DQQGYIQVTDFGFAK; Peptide_SEQ ID NO:56) [Peptide 49]
AKT [2]
  inhibitory effect toward AKT, individual library peptides: significant inhibitory effects

## AKRVKGRTWDLCGTPEY [ZaTa^T10D]
N2a cells [1]; [5]
  increase in the number of dead cells: not seen
